From patent publication US8742106B2 (Novartis AG, priority 2009, dated 2014)

Tests used:
[1] = biological target: human orexin 1 receptors (Homo sapiens (Human), UniProt O43613); test: Calcium Accumulation in Cells (FLIPR), antagonism of orexin A; assay type: cell-based; conditions: for inhibition at 10 µM: measured at a concentration of 10 μM of compound, read-out: FLIPR hOx1R % inhibition value; for Ki: antagonism of orexin A, Cheng-Prusoff corrected, read-out: FLIPR hOx1R Ki
Protocol: (§1) Calcium Accumulation in Cells (FLIPR):
Cells expressing human orexin 1 or human orexin 2 receptors, were seeded at 8,000 cells/well in 384 well black-walled clear bottom, poly-D-lysine coated plates. After 24 h, the medium was removed and cells were washed once with phosphate buffered saline and serum-deprived overnight in assay buffer (130 mM NaCl, 5.4 mM KCl, 1.8 mM CaCl2, 0.8 mM MgSO4, 0.9 mM NaH2PO4, 25 mM glucose, 20 mM HEPES, pH 7.4) containing bovine serum albumin (1% w/v).
On the day of the experiment, the cells seeded in black plates were treated with assay buffer containing the Ca^2+ sensitive fluorescent dye Fluo4-AM (2 μM), and probenecid (0.1 mM). After 1 h plates were washed twice with, and resuspended in, assay buffer containing probenecid (0.1 mM) using a multi plate washer. The plates were placed into a FLIPR II (Fluorometric Imaging Plate Reader, Molecular Devices, Sunnyvale, Calif., USA) and baseline fluorescence (fluorescence light units, FLU) was measured (5 measurements, 2 S each; laser excitation 488 nm at 0.6-1 W, CCD camera exposure 0.4 s) before addition of buffer alone (basal) or containing test compounds (either compound of formula (I) or (I′) alone, agonist alone or agonist in the presence of various concentrations of compounds of formula (I) or (I′)). Fluorescence measurements were then continued every 1 S for 120 S followed by every 4 S for 240 S.
(§2) The measurements were typically made in two sequences:
(§3) In the first round, compounds of formula (I) or (I′) were tested alone, to detect possible agonist activity. Compounds of formula I or I′ were tested usually in a concentration range from 10^−9 M to 10^−5 M.
(§4) In the second round, performed one hour later (to allow for equilibration), Orexin A was tested either in the absence (calibration curves, Orexin A agonist controls) or in the presence of compounds of formula (I) or (I′) to determine antagonism.

[2] = biological target: human orexin 2 receptors (Homo sapiens (Human), UniProt O43614); test: as above; assay type: cell-based; conditions: for inhibition at 10 µM: measured at a concentration of 10 μM of compound, read-out: FLIPR hOx2R % inhibition value; for Ki: antagonism of orexin A, Cheng-Prusoff corrected, read-out: FLIPR hOx2R Ki
Protocol: as §1
Cells expressing human orexin 1 or human orexin 2 receptors, were seeded at 8,000 cells/well in 384 well black-walled clear bottom, poly-D-lysine coated plates.
On the day of the experiment, the cells seeded in black plates were treated with assay buffer containing the Ca^2+ sensitive fluorescent dye Fluo4-AM (2 μM), and probenecid (0.1 mM). After 1 h plates were washed twice with, and resuspended in, assay buffer containing probenecid (0.1 mM) using a multi plate washer. […] Fluorescence measurements were then continued every 1 S for 120 S followed by every 4 S for 240 S.
as §2, §3, §4

Sequence of human orexin 2 receptors (O43614 whole entry): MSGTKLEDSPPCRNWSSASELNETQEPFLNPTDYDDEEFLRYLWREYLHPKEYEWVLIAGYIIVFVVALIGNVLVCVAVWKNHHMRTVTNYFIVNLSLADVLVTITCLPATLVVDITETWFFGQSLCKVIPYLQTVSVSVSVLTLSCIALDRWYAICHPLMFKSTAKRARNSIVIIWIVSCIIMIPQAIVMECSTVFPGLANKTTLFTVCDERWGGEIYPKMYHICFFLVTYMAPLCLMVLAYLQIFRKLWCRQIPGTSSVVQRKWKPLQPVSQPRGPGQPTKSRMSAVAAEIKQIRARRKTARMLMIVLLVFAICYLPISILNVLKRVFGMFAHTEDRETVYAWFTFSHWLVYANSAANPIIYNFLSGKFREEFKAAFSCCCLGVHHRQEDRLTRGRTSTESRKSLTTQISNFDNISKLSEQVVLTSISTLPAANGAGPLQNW
Sequence of human orexin 1 receptors (O43613 whole entry): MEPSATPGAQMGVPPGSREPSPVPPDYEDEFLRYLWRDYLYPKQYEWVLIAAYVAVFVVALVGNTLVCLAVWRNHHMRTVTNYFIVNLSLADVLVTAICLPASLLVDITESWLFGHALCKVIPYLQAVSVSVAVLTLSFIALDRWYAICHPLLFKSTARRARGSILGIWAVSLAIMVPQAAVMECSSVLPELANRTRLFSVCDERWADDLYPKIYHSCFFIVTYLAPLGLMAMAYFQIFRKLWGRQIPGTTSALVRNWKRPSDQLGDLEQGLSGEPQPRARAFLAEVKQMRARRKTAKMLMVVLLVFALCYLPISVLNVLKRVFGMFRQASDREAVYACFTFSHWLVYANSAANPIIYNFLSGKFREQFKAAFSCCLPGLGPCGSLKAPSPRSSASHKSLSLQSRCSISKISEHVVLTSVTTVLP

Structure (SMILES) | inhibition at 10 µM [1] | inhibition at 10 µM [2] | Ki [1] | Ki [2]
CC(Oc1cc(C(F)(F)F)c2c(-c3ccccc3)nn(C)c2n1)C(=O)N[C@@H](C)c1ccccc1 (single isomer, unassigned) [Example 1.74] | < 10% | < 10% | – | –
COc1ccc2c(c1)CC[C@@H]2NC(=O)C(C)Oc1cc(C)c2c(C3CC3)nn(C)c2n1 (single isomer, unassigned) [Example 6.72, (S or R)-2-(3-cyclopropyl-1,4-dimethyl-1H-pyrazolo[3,4-b]pyridin-6-yloxy)-N-((S)-5-methoxy-2,3-dihydro-1H-inden-1-yl)propanamide] | 46% | 48% | – | –
COc1ccc([C@H](C)NC(=O)C(C)Oc2cc(C)c3c(C4CC4)nn(C)c3n2)cc1 (single isomer, unassigned) [Example 6.73, (S or R)-2-(3-cyclopropyl-1,4-dimethyl-1H-pyrazolo[3,4-b]pyridin-6-yloxy)-N-((S)-1-(4-methoxyphenyl)ethyl)propanamide] | 43% | 29% | – | –
C[C@H](NC(=O)COc1cc(C(F)(F)F)c2c(-c3ccccc3)n[nH]c2n1)c1ccccc1 [Example 1.2, (S)-2-(3-phenyl-4-(trifluoromethyl)-1H-pyrazolo[3,4-b]pyridin-6-yloxy)-N-(1-phenylethyl)acetamide] | – | – | 200 nM | 43 nM
CCOc1ccccc1CNC(=O)COc1cc(C(F)(F)F)c2c(-c3ccccc3)nn(C)c2n1 [Example 1.7, N-(2-ethoxybenzyl)-2-(1-methyl-3-phenyl-4-(trifluoromethyl)-1H-pyrazolo[3,4-b]pyridin-6-yloxy)acetamide] | – | – | 1020 nM | 337 nM
Cn1nc(-c2ccccc2)c2c(C(F)(F)F)cc(OCC(=O)NCc3cccc(F)c3)nc21 [Example 1.8, N-(3-fluorobenzyl)-2-(1-methyl-3-phenyl-4-(trifluoromethyl)-1H-pyrazolo[3,4-b]pyridin-6-yloxy)acetamide] | 39% | – | – | 1620 nM
Cn1nc(-c2ccccc2)c2c(C(F)(F)F)cc(OCC(=O)NC3CCCCC3)nc21 [Example 1.9, N-cyclohexyl-2-(1-methyl-3-phenyl-4-(trifluoromethyl)-1H-pyrazolo[3,4-b]pyridin-6-yloxy)acetamide] | 32% | – | – | 2500 nM
Cn1nc(-c2ccccc2)c2c(C(F)(F)F)cc(OCC(=O)NC3CCCC3)nc21 [Example 1.10, N-cyclopentyl-2-(1-methyl-3-phenyl-4-(trirfluoromethyl)-1H-pyrazolo[3,4-b]pyridin-6-yloxy)acetamide] | – | – | 650 nM | 324 nM
Cn1nc(-c2ccccc2)c2c(C(F)(F)F)cc(OCC(=O)NCc3ccc(Cl)cc3)nc21 [Example 1.11, N-(4-chlorobenzyl)-2-(1-methyl-3-phenyl-4-(trifluoromethyl)-1H-pyrazolo[3,4-b]pyridin-6-yloxy)acetamide] | – | – | 2010 nM | 251 nM
Cn1nc(-c2ccccc2)c2c(C(F)(F)F)cc(OCC(=O)NCc3ccccc3)nc21 [Example 1.12, N-benzyl-2-(1-methyl-3-phenyl-4-(trifluoromethyl)-1H-pyrazolo[3,4-b]pyridin-6-yloxy)acetamide] | – | – | 2500 nM | 1380 nM
Cc1cc(OCC(=O)NCc2ccccc2Cl)nc2c1c(-c1ccccc1)nn2C [Example 1.14, N-(2-chlorobenzyl)-2-(1,4-dimethyl-3-phenyl-1H-pyrazolo[3,4-b]pyridin-6-yloxy)acetamide] | – | 33% | 422 nM | –
Cc1cc(OCC(=O)NCc2ccc3c(c2)OCO3)nc2c1c(-c1ccccc1)nn2C [Example 1.15, N-(benzo[d][1,3]dioxol-5-ylmethyl)-2-(1,4-dimethyl-3-phenyl-1H-pyrazolo[3,4-b]pyridin-6-yloxy)acetamide] | 44% | 39% | – | –
C[C@H](NC(=O)COc1cc(C(F)(F)F)c2c(-c3ccccn3)nn(C)c2n1)c1ccccc1 [Example 1.21, (S)-2-(1-methyl-3-(pyridin-2-yl)-4-(trifiuoromethyl)-1H-pyrazolo[3,4-b]pyridin-6-yloxy)-N-(1-phenylethyl)acetamide] | 38% | 29% | – | –
C[C@H](NC(=O)COc1cc(C(F)(F)F)c2c(-c3ccncc3)nn(C)c2n1)c1ccccc1 [Example 1.25, (S)-2-(1-methyl-3-(pyridin-4-yl)-4-(trifluoromethyl)-1H-pyrazolo[3,4-b]pyridin-6-yloxy)-N-(1-phenylethyl)acetamide] | 54% | 52% | – | –
Cc1ccccc1-c1nn(C)c2nc(OCC(=O)N[C@@H](C)c3ccccc3)cc(C(F)(F)F)c12 [Example 1.26, (S)-2-(1-methyl-3-o-tolyl-4-(trifluoromethyl)-1H-pyrazolo[3,4-b]pyridin-6-yloxy)-N-(1-phenylethyl)acetamide] | – | – | 218 nM | 183 nM
C[C@@H](NC(=O)COc1cc(C(F)(F)F)c2c(-c3ccccc3)nn(C)c2n1)c1ccccc1 [Example 1.27, (R)-2-(1-methyl-3-phenyl-4-(trifluoromethyl)-1H-pyrazolo[3,4-b]pyridin-6-yloxy)-N-(1-phenylethyl)acetamide] | 33% | 35% | – | –
Cc1ccc(C(C)NC(=O)COc2cc(C(F)(F)F)c3c(-c4ccccc4)nn(C)c3n2)o1 (centres unmarked) [Example 1.28, 2-(1-methyl-3-phenyl-4-(trifluoromethyl)-1H-pyrazolo[3,4-b]pyridin-6-yloxy)-N-(1-(5-methylfuran-2-yl)ethyl)acetamide] | – | – | 941 nM | 411 nM
CC(NC(=O)COc1cc(C(F)(F)F)c2c(-c3ccccc3)nn(C)c2n1)c1ccccn1 (centres unmarked) [Example 1.29, 2-(1-methyl-3-phenyl-4-(trifluoromethyl)-1H-pyrazolo[3,4-b]pyridin-6-yloxy)-N-(1-(pyridin-2-yl)ethyl)acetamide] | – | 44% | 2670 nM | –
CC(NC(=O)COc1cc(C(F)(F)F)c2c(-c3ccccc3)nn(C)c2n1)c1cccnc1 (centres unmarked) [Example 1.30, 2-(1-methyl-3-phenyl-4-(trifluoromethyl)-1H-pyrazolo[3,4-b]pyridin-6-yloxy)-N-(1-(pyridin-3-yl)ethyl)acetamide] | – | – | 970 nM | 582 nM
Cc1n[nH]c(C)c1[C@@H](C)NC(=O)COc1cc(C(F)(F)F)c2c(-c3ccccc3)nn(C)c2n1 [Example 1.62, (R)-N-(1-(3,5-dimethyl-1H-pyrazol-4-yl)ethyl)-2-(1-methyl-3-phenyl-4-(trifluoromethyl)-1H-pyrazolo[3,4-b]pyridin-6-yloxy)acetamide] | – | 36% | – | –
COc1ccc([C@H](C)NC(=O)COc2cc(C)c3c(-c4cc(OC)cc(OC)c4)nn(C)c3n2)cc1 [Example 6.1, (S)-2-((3-(3,5-dimethoxyphenyl)-1,4-dimethyl-1H-pyrazolo[3,4-b]pyridin-6-yl)oxy)-N-(1-(4-methoxyphenyl)ethyl)acetamide] | – | – | – | 185 nM
COc1ccc2c(c1)CC[C@H]2NC(=O)COc1cc(C)c2c(C3CC3)nn(C)c2n1 [Example 6.4, (R)-2-(3-cyclopropyl-1,4-dimethyl-1H-pyrazolo[3,4-b]pyridin-6-yloxy)-N-(5-methoxy-2,3-dihydro-1H-inden-1-yl)acetamide] | – | – | 1760 nM | –
